The values below come from patent US6489320B1, “5, 5-disubstituted-1, 5-dihydro-4, 1-benzoxazepin-2 (3H)-ones useful as HIV reverse transcriptase inhibitors” (Bristol-Myers Squibb Pharma Company, priority 1997, dated 2002).

Values after ≈ are worked out from the molar mass of the structure shown.

One series has as its system HIV-1 (RF). In words: HIV RNA assay: microplate based compound evaluation in HIV-1 infected MT-2 cells. Format: cell-based. As to conditions: Human immunodeficiency virus 1, MT2, 72 h; HIV-1 (RF) infected MT-2 cells, 3 days; virus dilutions selected to give this value (standardization of inoculum); read-out: IC90 value (concentration of compound required to reduce the HIV RNA level by 90%). As for the experimental part: Plasmid pDAB 72 containing both gag and pol sequences of BH10 (bp 113-1816) cloned into PTZ 19R was prepared according to Erickson-Viitanen et al. AIDS Research and Human Retroviruses 1989, 5, 577. The plasmid was linearized with Bam HI prior to the generation of in vitro RNA transcripts using the Riboprobe Gemini system II kit (Promega) with T7 RNA polymerase. Synthesized RNA was purified by treatment with RNase free DNAse (Promega), phenol-chloroform extraction, and ethanol precipitation. RNA transcripts were dissolved in water, and stored at −70° C. The concentration of RNA was determined from the A260.
Biotinylated capture probes were purified by HPLC after synthesis on an Applied Biosystems (Foster City, Calif.) DNA synthesizer by addition of biotin to the 5′ terminal end of the oligonucleotide, using the biotin-phosphoramidite reagent of Cocuzza, Tet. Lett. 1989, 30, 6287. […]
MT-2 and MT-4 cells were maintained in RPMI 1640 supplemented with 5% fetal calf serum (FCS) for MT-2 cells or 10% FCS for MT-4 cells, 2 mM L-glutamine and 50 μg/mL gentamycin, all from Gibco. […] Infectious titers of HIV-1(RF) stocks were 1-3×10^7 PFU (plaque forming units)/mL as measured by plaque assay on MT-2 cells (see below). […]
Regarding `Nc1ccn([C@H]2CC[C@@H](CO)O2)c(=O)n1` [ddC, 2′,3′-dideoxycytidine], the IC90 stood at 0.2 µg/mL (≈ 0.947 µM).

Tested on in another series: not given
Test: not given
Settings: not given
The compound `O=C1COC(C#CC2CC2)(C(F)(F)F)c2cc(Cl)ccc2N1` (centres unmarked) [Example 18, 7-Chloro-5-cyclopropylethynyl-1,5-dihydro-5-(trifluoromethyl)-4,1-benzoxazepin-2(3H)-one] gave a melting point of 199.5 to 200.5 °C.
The same measure, in the same setting: the value for `CC(C)/C=C/C1(C(F)(F)F)OCC(=O)Nc2ccc(Cl)cc21` (stereo not drawn) [Example 20, trans-7-Chloro-5-(2-isopropylethenyl)-1,5-dihydro-5-(trifluoromethyl)-4,1-benzoxazepin-2(3H)-one] was 148 to 149 °C; that for `COc1ccc2c(c1)C(CCC(C)C)(C(F)(F)F)OCC(=O)N2` (centres unmarked) [Example 21, 7-Methoxy-5-(3-methylbutyl)-1,5-dihydro-5-(trifluoromethyl)-4,1-benzoxazepin-2(3H)-one] was 129 to 130 °C.
In the case of `O=C1COC(C#Cc2cccnc2)(C(F)(F)F)c2cc(Cl)ccc2N1` (centres unmarked) [Example 24, 7-Chloro-5-(3-pyridylethynyl)-1,5-dihydro-5-(trifluoromethyl)-4,1-benzoxazepin-2(3H)-one], the melting point lay in the range of 219 to 221 °C.
On the same count and under the same terms, the value for `CC(C)/C=C/C1(C(F)(F)F)OCC(=O)Nc2ccc(F)c(F)c21` (stereo not drawn) [Example 27, trans-6,7-Difluoro-5-(2-isopropylethenyl)-1,5-dihydro-5-(trifluoromethyl)-4,1-benzoxazepin-2(3H)-one] was 159 to 160 °C; that for `C[C@@H]1O[C@](C#CC2CC2)(C(F)(F)F)c2cc(Cl)ccc2NC1=O` [Example 36, (+)-(3S,5S)-7-Chloro-5-cyclopropylethynyl-1,5-dihydro-3-methyl-5-(trifluoromethyl)-4,1-benzoxazepin-2(3H)-one] was 145 to 146 °C; that for `C[C@@H]1O[C@](/C=C/C2CC2)(C(F)(F)F)c2cc(Cl)ccc2NC1=O` [Example 39, (+)-(3S,5S)-trans-7-Chloro-5-(2-cyclopropylethenyl)-1,5-dihydro-3-methyl-5-(trifluoromethyl)-4,1-benzoxazepin-2(3H)-one] was 175 to 175.5 °C.

Broadly, the melting point is the temperature of the solid-liquid transition.
